ChEMBL document CHEMBL3217516, “Library synthesis and cytotoxicity of a family of 2-phenylacrylonitriles and discovery of an estrogen dependent breast cancer lead compound” (Medchemcomm, 2011)

Tests used:
Type in all cases: functional
HT-29 [1] = experiment: Cytotoxicity against human HT-29 cells after 72 hrs by MTT assay; conditions: HT-29, 72 h
SW480 [2] = experiment: Cytotoxicity against human SW480 cells after 72 hrs by MTT assay; conditions: SW480, 72 h
MCF7 [3] = experiment: Cytotoxicity against human MCF7 cells after 72 hrs by MTT assay; conditions: MCF7, 72 h
A2780 [4] = experiment: Cytotoxicity against human A2780 cells after 72 hrs by MTT assay; conditions: A2780, 72 h
[5] = Cytotoxicity against human H460 cells after 72 hrs by MTT assay; conditions: NCI-H460, 72 h
A-431 [6] = experiment: Cytotoxicity against human A431 cells after 72 hrs by MTT assay; conditions: A-431, 72 h
DU-145 [7] = experiment: Cytotoxicity against human DU145 cells after 72 hrs by MTT assay; conditions: DU-145, 72 h
[8] = Cytotoxicity against human BE(2)-C cells after 72 hrs by MTT assay
[9] = Cytotoxicity against human SJ-G2 cells after 72 hrs by MTT assay; conditions: SJ-G2, 72 h
[10] = Cytotoxicity against human MIA cells after 72 hrs by MTT assay
HT-29 [11] = experiment: Cytotoxicity against human HT-29 cells at 100 uM after 72 hrs by MTT assay; conditions: HT-29, 72 h, read-out: GI
SW480 [12] = experiment: Cytotoxicity against human SW480 cells at 100 uM after 72 hrs by MTT assay; conditions: SW480, 72 h, read-out: GI
MCF7 [13] = experiment: Cytotoxicity against human MCF7 cells at 100 uM after 72 hrs by MTT assay; conditions: MCF7, 72 h, read-out: GI
A2780 [14] = experiment: Cytotoxicity against human A2780 cells at 100 uM after 72 hrs by MTT assay; conditions: A2780, 72 h, read-out: GI
[15] = Cytotoxicity against human H460 cells at 100 uM after 72 hrs by MTT assay; conditions: NCI-H460, 72 h, read-out: GI
A-431 [16] = experiment: Cytotoxicity against human A431 cells at 100 uM after 72 hrs by MTT assay; conditions: A-431, 72 h, read-out: GI
DU-145 [17] = experiment: Cytotoxicity against human DU145 cells at 100 uM after 72 hrs by MTT assay; conditions: DU-145, 72 h, read-out: GI
[18] = Cytotoxicity against human BE(2)-C cells at 100 uM after 72 hrs by MTT assay; conditions: read-out: GI
[19] = Cytotoxicity against human SJ-G2 cells at 100 uM after 72 hrs by MTT assay; conditions: SJ-G2, 72 h, read-out: GI
[20] = Cytotoxicity against human MIA cells at 100 uM after 72 hrs by MTT assay; conditions: read-out: GI

| SMILES | GI50 (HT-29 [1]) [µM] | GI50 (SW480 [2]) [µM] | GI50 (MCF7 [3]) [µM] | GI50 (A2780 [4]) [µM] | GI50 [5] [µM] | GI50 (A-431 [6]) [µM] | GI50 (DU-145 [7]) [µM] | GI50 [8] [µM] | GI50 [9] [µM] | GI50 [10] [µM] | inhibition of growth at 100 µM (HT-29 [11]) [%] | inhibition of growth at 100 µM (SW480 [12]) [%] | inhibition of growth at 100 µM (MCF7 [13]) [%] | inhibition of growth at 100 µM (A2780 [14]) [%] | inhibition of growth at 100 µM [15] [%] | inhibition of growth at 100 µM (A-431 [16]) [%] | inhibition of growth at 100 µM (DU-145 [17]) [%] | inhibition of growth at 100 µM [18] [%] | inhibition of growth at 100 µM [19] [%] | inhibition of growth at 100 µM [20] [%] |
| --- | --- | --- | --- | --- | --- | --- | --- | --- | --- | --- | --- | --- | --- | --- | --- | --- | --- | --- | --- | --- |
| N#C/C(=C\c1ccc(Br)cc1)c1ccc(Cl)c(Cl)c1 | 20 | 22 | 16 | 20 | 21 | 20 | 26 | 21 | 22 | 21 | – | – | – | – | – | – | – | – | – | – |
| N#C/C(=C\c1ccncc1)c1ccc(Cl)c(Cl)c1 | 18 | 18 | 15 | 18 | 9.4 | 26 | 24 | 16 | 22 | 22 | – | – | – | – | – | – | – | – | – | – |
| N#C/C(=C\c1cc(O)cc(O)c1)c1ccc(Cl)c(Cl)c1 | > 100 | 90 | 28 | 93 | > 100 | 88 | > 100 | > 100 | 95 | > 100 | – | – | – | – | – | – | – | – | – | – |
| N#C/C(=C/c1ccc2ccccc2c1)C(=O)c1ccc[nH]1 | < 10 | < 10 | 12 | < 10 | < 10 | < 10 | < 10 | < 10 | < 10 | < 10 | – | – | – | – | – | – | – | – | – | – |
| COc1ccc(/C=C(\C#N)c2ccc(Cl)c(Cl)c2)cc1 | – | – | – | – | – | – | – | – | – | 0.7 | – | – | – | – | – | – | – | – | – | – |
| N#CC(Cc1ccc[nH]1)c1ccc(F)cc1 (configuration not stated) | 73 | 78 | 65 | 69 | 88 | 89 | 91 | 75 | 86 | 90 | – | – | – | – | – | – | – | – | – | – |
| N#C/C(=C/c1ccc([N+](=O)[O-])cc1)C(=O)c1ccc[nH]1 | < 10 | < 10 | 19 | 19 | < 10 | < 10 | < 10 | 19 | < 10 | < 10 | – | – | – | – | – | – | – | – | – | – |
| N#CC(Cc1ccc[nH]1)c1ccc(Cl)cc1 (configuration not stated) | 37 | 53 | 26 | 26 | 58 | 58 | 60 | 45 | 52 | 58 | – | – | – | – | – | – | – | – | – | – |
| N#CC(Cc1ccc[nH]1)c1ccc(Cl)c(Cl)c1 (configuration not stated) | – | – | – | – | – | – | – | – | – | – | 51 | 34 | 84 | 63 | 55 | 44 | 24 | 42 | 33 | 20 |
| N#CC(Cc1ccc[nH]1)c1ccc([N+](=O)[O-])cc1 (configuration not stated) | 67 | 70 | 37 | 29 | 64 | 78 | 90 | 65 | 87 | 82 | – | – | – | – | – | – | – | – | – | – |
| N#C/C(=C\c1ccc[nH]1)c1ccc(F)cc1 | 31 | 24 | 15 | 25 | 52 | 37 | 59 | 43 | 30 | 63 | – | – | – | – | – | – | – | – | – | – |
| Cc1ccc(/C=C(\C#N)c2ccc(Cl)c(Cl)c2)cc1 | 1.6 | 2.3 | 2.2 | 2 | 2.1 | 1.8 | 2.2 | 2.2 | 2.1 | 2 | – | – | – | – | – | – | – | – | – | – |
| CCCCCCCCC/C=C(\C#N)c1ccc(Cl)c(Cl)c1 | – | – | – | – | – | – | – | – | – | – | 53 | 68 | 49 | 24 | 100 | 88 | 87 | 73 | 70 | 22 |
| N#C/C(=C\c1ccc(F)cc1)c1ccc(Cl)c(Cl)c1 | – | – | – | – | – | – | – | – | – | 11 | – | – | – | – | – | – | – | – | – | – |
